# Experimental data from PubChem BioAssay AID2060623 (Molecular Pharmacology Branch, DTP, NCI, 2025).
# System: 227483-062-R1-J1-PDC complex spheroids with HUVEC/MSC, viability
# Experiment: Anticancer human tumor 227483-062-R1-J1-PDC patient-derived pancreatic carcinoma cell line growth inhibition [CLK]
# Settings: for IC50: curve of first compound; for viability, T/C: stronger effect = lower value
# In short: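 Multi-cell-type spheroids combined patient-derived tumor cells with HUVEC endothelial cells and human mesenchymal stem cells. Paired agents were dosed in half-log steps down from about clinical Cmax, or from 10 microM where Cmax was unknown.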
# [1] = second compound 0.0316 µM, first compound 0.00316 µM
# [2] = second compound 0.0316 µM, first compound 0.01 µM
# [3] = second compound 0.0316 µM, first compound 0.0316 µM
# [4] = second compound 0.0316 µM, first compound 0.1 µM
# [5] = second compound 0.0316 µM, first compound 0.316 µM
# [6] = second compound 0.0316 µM, first compound 1 µM
# [7] = second compound 0.1 µM, first compound 0.00316 µM
# [8] = second compound 0.1 µM, first compound 0.01 µM
# [9] = second compound 0.1 µM, first compound 0.0316 µM
# [10] = second compound 0.1 µM, first compound 0.1 µM
# [11] = second compound 0.1 µM, first compound 0.316 µM
# [12] = second compound 0.1 µM, first compound 1 µM
# [13] = second compound 0.316 µM, first compound 0.00316 µM
# [14] = second compound 0.316 µM, first compound 0.01 µM
# [15] = second compound 0.316 µM, first compound 0.0316 µM
# [16] = second compound 0.316 µM, first compound 0.1 µM
# [17] = second compound 0.316 µM, first compound 0.316 µM
# [18] = second compound 0.316 µM, first compound 1 µM
# [19] = second compound 1 µM, first compound 0.00316 µM
# [20] = second compound 1 µM, first compound 0.01 µM
# [21] = second compound 1 µM, first compound 0.0316 µM
# [22] = second compound 1 µM, first compound 0.1 µM
# [23] = second compound 1 µM, first compound 0.316 µM
# [24] = second compound 1 µM, first compound 1 µM
# [25] = second compound 3.16 µM, first compound 0.00316 µM
# [26] = second compound 3.16 µM, first compound 0.01 µM
# [27] = second compound 3.16 µM, first compound 0.0316 µM
# [28] = second compound 3.16 µM, first compound 0.1 µM
# [29] = second compound 3.16 µM, first compound 0.316 µM
# [30] = second compound 3.16 µM, first compound 1 µM
# [31] = second compound 10 µM, first compound 0.00316 µM
# [32] = second compound 10 µM, first compound 0.01 µM
# [33] = second compound 10 µM, first compound 0.0316 µM
# [34] = second compound 10 µM, first compound 0.1 µM
# [35] = second compound 10 µM, first compound 0.316 µM
# [36] = second compound 10 µM, first compound 1 µM
# 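Also: spheroids exposed to compounds for seven days before readout.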
# 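For viability, T/C in this document: percent of DMSO vehicle control luminescence as 100% viability.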
smiles,measurement,setting,value
CCc1c2c(nc3ccc(O)cc13)-c1cc3c(c(=O)n1C2)COC(=O)[C@]3(O)CC + CNC(=O)c1ccc(Nc2nc(OC3CCCC3)c3c(-c4ccc5nc(C)oc5c4)c[nH]c3n2)c(OC)c1,IC50,second compound 0.0316 µM,205 nM
same,IC50,second compound 0.1 µM,176 nM
same,IC50,second compound 0.316 µM,64 nM
same,IC50,second compound 1 µM,11.4 nM
same,IC50,second compound 3.16 µM,< 3.16 nM
same,IC50,second compound 10 µM,< 3.16 nM
same,"viability, T/C",[1],121%
same,"viability, T/C",[2],96.1%
same,"viability, T/C",[3],81.2%
same,"viability, T/C",[4],60.5%
same,"viability, T/C",[5],41.5%
same,"viability, T/C",[6],32.5%
same,"viability, T/C",[7],111%
same,"viability, T/C",[8],97.1%
same,"viability, T/C",[9],69.3%
same,"viability, T/C",[10],64.4%
same,"viability, T/C",[11],42.1%
same,"viability, T/C",[12],19.8%
same,"viability, T/C",[13],65.2%
same,"viability, T/C",[14],84.3%
same,"viability, T/C",[15],62.2%
same,"viability, T/C",[16],37.8%
same,"viability, T/C",[17],24.1%
same,"viability, T/C",[18],5.82%
same,"viability, T/C",[19],61.2%
same,"viability, T/C",[20],54%
same,"viability, T/C",[21],34.1%
same,"viability, T/C",[22],19.4%
same,"viability, T/C",[23],10.4%
same,"viability, T/C",[24],1.96%
same,"viability, T/C",[25],44%
same,"viability, T/C",[26],35.2%
same,"viability, T/C",[27],24.2%
same,"viability, T/C",[28],12.6%
same,"viability, T/C",[29],7.58%
same,"viability, T/C",[30],2.02%
same,"viability, T/C",[31],33.4%
same,"viability, T/C",[32],32.4%
same,"viability, T/C",[33],17.1%
same,"viability, T/C",[34],11.4%
same,"viability, T/C",[35],6.34%
same,"viability, T/C",[36],2.19%
C=CC(=O)Nc1cc(Nc2nccc(-c3cn(C)c4ccccc34)n2)c(OC)cc1N(C)CCN(C)C + CNC(=O)c1ccc(Nc2nc(OC3CCCC3)c3c(-c4ccc5nc(C)oc5c4)c[nH]c3n2)c(OC)c1,IC50,second compound 0.0316 µM,> 300 nM
same,IC50,second compound 0.1 µM,> 300 nM
same,IC50,second compound 0.316 µM,> 300 nM
same,IC50,second compound 1 µM,> 300 nM
same,IC50,second compound 3.16 µM,< 0.949 nM
same,IC50,second compound 10 µM,< 0.949 nM
same,"viability, T/C","second compound 0.0316 µM, first compound 0.000949 µM",95.2%
same,"viability, T/C","second compound 0.0316 µM, first compound 0.003 µM",94.2%
same,"viability, T/C","second compound 0.0316 µM, first compound 0.00949 µM",108%
same,"viability, T/C","second compound 0.0316 µM, first compound 0.03 µM",98.6%
same,"viability, T/C","second compound 0.0316 µM, first compound 0.0949 µM",76.4%
same,"viability, T/C","second compound 0.0316 µM, first compound 0.3 µM",80.8%
same,"viability, T/C","second compound 0.1 µM, first compound 0.000949 µM",93.7%
same,"viability, T/C","second compound 0.1 µM, first compound 0.003 µM",103%
same,"viability, T/C","second compound 0.1 µM, first compound 0.00949 µM",85.4%
same,"viability, T/C","second compound 0.1 µM, first compound 0.03 µM",102%
same,"viability, T/C","second compound 0.1 µM, first compound 0.0949 µM",71.9%
same,"viability, T/C","second compound 0.1 µM, first compound 0.3 µM",69.7%
same,"viability, T/C","second compound 0.316 µM, first compound 0.000949 µM",73.1%
same,"viability, T/C","second compound 0.316 µM, first compound 0.003 µM",84.8%
same,"viability, T/C","second compound 0.316 µM, first compound 0.00949 µM",89.9%
same,"viability, T/C","second compound 0.316 µM, first compound 0.03 µM",63.8%
same,"viability, T/C","second compound 0.316 µM, first compound 0.0949 µM",83.7%
same,"viability, T/C","second compound 0.316 µM, first compound 0.3 µM",60.3%
same,"viability, T/C","second compound 1 µM, first compound 0.000949 µM",58.6%
same,"viability, T/C","second compound 1 µM, first compound 0.003 µM",50.4%
same,"viability, T/C","second compound 1 µM, first compound 0.00949 µM",69.6%
same,"viability, T/C","second compound 1 µM, first compound 0.03 µM",66.1%
same,"viability, T/C","second compound 1 µM, first compound 0.0949 µM",56.2%
same,"viability, T/C","second compound 1 µM, first compound 0.3 µM",49.6%
same,"viability, T/C","second compound 3.16 µM, first compound 0.000949 µM",45.4%
same,"viability, T/C","second compound 3.16 µM, first compound 0.003 µM",47.5%
same,"viability, T/C","second compound 3.16 µM, first compound 0.00949 µM",52.5%
same,"viability, T/C","second compound 3.16 µM, first compound 0.03 µM",42.2%
same,"viability, T/C","second compound 3.16 µM, first compound 0.0949 µM",51.1%
same,"viability, T/C","second compound 3.16 µM, first compound 0.3 µM",52.2%
same,"viability, T/C","second compound 10 µM, first compound 0.000949 µM",42.5%
same,"viability, T/C","second compound 10 µM, first compound 0.003 µM",41.9%
same,"viability, T/C","second compound 10 µM, first compound 0.00949 µM",38.4%
same,"viability, T/C","second compound 10 µM, first compound 0.03 µM",40.9%
same,"viability, T/C","second compound 10 µM, first compound 0.0949 µM",51.4%
same,"viability, T/C","second compound 10 µM, first compound 0.3 µM",32.9%
CC(Nc1ccc2c(c1)OCCn1cc(N3C(=O)OCC3C(F)F)nc1-2)C(N)=O (stereo not drawn) + CN1CCN(c2cc(C(=O)Nc3cc4cc(-c5cnn(C)c5)ccc4cn3)ccn2)CC1,IC50,second compound 0.0316 µM,> 10000 nM
same,IC50,second compound 0.1 µM,248 nM
same,IC50,second compound 0.316 µM,< 31.6 nM
same,IC50,second compound 1 µM,< 31.6 nM
same,IC50,second compound 3.16 µM,< 31.6 nM
same,IC50,second compound 10 µM,< 31.6 nM
same,"viability, T/C",[3],108%
same,"viability, T/C",[4],81.5%
same,"viability, T/C",[5],70%
same,"viability, T/C",[6],77.8%
same,"viability, T/C","second compound 0.0316 µM, first compound 3.16 µM",63%
same,"viability, T/C","second compound 0.0316 µM, first compound 10 µM",66.1%
same,"viability, T/C",[9],72.6%
same,"viability, T/C",[10],60.6%
same,"viability, T/C",[11],47.2%
same,"viability, T/C",[12],45.7%
same,"viability, T/C","second compound 0.1 µM, first compound 3.16 µM",48.7%
same,"viability, T/C","second compound 0.1 µM, first compound 10 µM",44.8%
same,"viability, T/C",[15],7.83%
same,"viability, T/C",[16],6.06%
same,"viability, T/C",[17],6.08%
same,"viability, T/C",[18],6.51%
same,"viability, T/C","second compound 0.316 µM, first compound 3.16 µM",6.66%
same,"viability, T/C","second compound 0.316 µM, first compound 10 µM",5.69%
same,"viability, T/C",[21],3.5%
same,"viability, T/C",[22],1.22%
same,"viability, T/C",[23],1.34%
same,"viability, T/C",[24],1.35%
same,"viability, T/C","second compound 1 µM, first compound 3.16 µM",2.69%
same,"viability, T/C","second compound 1 µM, first compound 10 µM",2.57%
same,"viability, T/C",[27],5.8%
same,"viability, T/C",[28],3.43%
same,"viability, T/C",[29],2.3%
same,"viability, T/C",[30],2.9%
same,"viability, T/C","second compound 3.16 µM, first compound 3.16 µM",2.51%
same,"viability, T/C","second compound 3.16 µM, first compound 10 µM",2.34%
same,"viability, T/C",[33],2.26%
same,"viability, T/C",[34],2.36%
same,"viability, T/C",[35],2.91%
same,"viability, T/C",[36],1.47%
same,"viability, T/C","second compound 10 µM, first compound 3.16 µM",1.7%
same,"viability, T/C","second compound 10 µM, first compound 10 µM",3.3%
CCN1CCN(Cc2ccc(Nc3ncc(F)c(-c4cc(F)c5nc(C)n(C(C)C)c5c4)n3)nc2)CC1 + CN1CCN(c2cc(C(=O)Nc3cc4cc(-c5cnn(C)c5)ccc4cn3)ccn2)CC1,IC50,second compound 0.0316 µM,> 1000 nM
same,IC50,second compound 0.1 µM,> 1000 nM
same,IC50,second compound 0.316 µM,< 3.16 nM
same,IC50,second compound 1 µM,< 3.16 nM
same,IC50,second compound 3.16 µM,< 3.16 nM
same,IC50,second compound 10 µM,< 3.16 nM
same,"viability, T/C",[1],97.5%
same,"viability, T/C",[2],93.4%
same,"viability, T/C",[3],101%
same,"viability, T/C",[4],93.4%
same,"viability, T/C",[5],87.6%
same,"viability, T/C",[6],72.4%
same,"viability, T/C",[7],65.8%
same,"viability, T/C",[8],64.7%
same,"viability, T/C",[9],64.5%
same,"viability, T/C",[10],72.9%
same,"viability, T/C",[11],72.6%
same,"viability, T/C",[12],52%
same,"viability, T/C",[13],6.05%
same,"viability, T/C",[14],8.49%
same,"viability, T/C",[15],8.54%
same,"viability, T/C",[16],9.66%
same,"viability, T/C",[17],13%
same,"viability, T/C",[18],6.42%
same,"viability, T/C",[19],1.57%
same,"viability, T/C",[20],2.07%
same,"viability, T/C",[21],2.83%
same,"viability, T/C",[22],2.75%
same,"viability, T/C",[23],4.4%
same,"viability, T/C",[24],5.61%
same,"viability, T/C",[25],3.72%
same,"viability, T/C",[26],6.23%
same,"viability, T/C",[27],5.4%
same,"viability, T/C",[28],5.18%
same,"viability, T/C",[29],4.88%
same,"viability, T/C",[30],8.09%
same,"viability, T/C",[31],3.9%
same,"viability, T/C",[32],2.79%
same,"viability, T/C",[33],4.22%
same,"viability, T/C",[34],4.63%
same,"viability, T/C",[35],2.76%
same,"viability, T/C",[36],2.39%
